From ChEMBL document CHEMBL1201862, “PubChem BioAssay data set” (2004)
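These data come from cells grown in 96-well plates and exposed to compound for 48 hours at five concentrations. At the GI50, growth is halved.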 The source made the active and inactive calls. No stated cut-off is given here; in the data, active = GI50 up to about 1.1 µM and inactive = higher.

Key:
Assay in all cases: NCI anticancer screen, dose series, 48 h
786-0 = test system: 786-0
A498 = test system: A498
A549 = test system: A549
ACHN = test system: ACHN
BT-549 = test system: BT-549
CAKI-1 = test system: CAKI-1
CCRF-CEM = test system: CCRF-CEM
COLO 205 = test system: COLO 205
DU-145 = test system: DU-145
EKVX = test system: EKVX
HCT-116 = test system: HCT-116
HCT-15 = test system: HCT-15
HL-60 = test system: HL-60
HOP-92 = test system: HOP-92
HT-29 = test system: HT-29
Hs-578T = test system: Hs-578T
IGROV-1 = test system: IGROV-1
K562 = test system: K562
LOX IMVI = test system: LOX IMVI
M14 = test system: M14
MCF7 = test system: MCF7
MDA-MB-231 = test system: MDA-MB-231
MDA-MB-435 = test system: MDA-MB-435
MDA-N = test system: MDA-N
MOLT-4 = test system: MOLT-4
Malme-3M = test system: Malme-3M
NCI-H226 = test system: NCI-H226
NCI-H23 = test system: NCI-H23
NCI-H522 = test system: NCI-H522
NCI/ADR-RES = test system: NCI/ADR-RES
OVCAR-3 = test system: OVCAR-3
OVCAR-4 = test system: OVCAR-4
OVCAR-5 = test system: OVCAR-5
OVCAR-8 = test system: OVCAR-8
PC-3 = test system: PC-3
RPMI-8226 = test system: RPMI-8226
RXF 393 = test system: RXF 393
SF-268 = test system: SF-268
SF-539 = test system: SF-539
SK-MEL-28 = test system: SK-MEL-28
SK-MEL-2 = test system: SK-MEL-2
SK-MEL-5 = test system: SK-MEL-5
SN12C = test system: SN12C
SNB-19 = test system: SNB-19
SNB-75 = test system: SNB-75
SR = test system: SR
SW-620 = test system: SW-620
T47D = test system: T47D
UACC-62 = test system: UACC-62
UO-31 = test system: UO-31

SMILES: CCOc1cc(C2CC(c3ccc(NS(=O)(=O)c4cc([N+](=O)[O-])ccc4C)cc3)=NN2)ccc1O (stereo not given)
- GI50 (786-0): 20.1 µM (inactive)
- GI50 (A498): 22.3 µM (inactive)
- GI50 (A549): 29 µM (inactive)
- GI50 (ACHN): 23.7 µM (inactive)
- GI50 (BT-549): 21.1 µM (inactive)
- GI50 (CAKI-1): 29.3 µM (inactive)
- GI50 (CCRF-CEM): 30.8 µM (inactive)
- GI50 (COLO 205): 22.3 µM (inactive)
- GI50 (DU-145): 36.6 µM (inactive)
- GI50 (EKVX): 21.4 µM (inactive)
- GI50 (HCT-116): 20.4 µM (inactive)
- GI50 (HCT-15): 20.5 µM
- GI50 (HL-60): 15.5 µM (inactive)
- GI50 (HOP-92): 45 µM (inactive)
- GI50 (HT-29): 26.8 µM (inactive)
- GI50 (Hs-578T): 65 µM (inactive)
- GI50 (IGROV-1): 58.9 µM (inactive)
- GI50 (K562): 24.5 µM (inactive)
- GI50 (LOX IMVI): 22.5 µM (inactive)
- GI50 (M14): 19 µM (inactive)
- GI50 (MCF7): 21.5 µM (inactive)
- GI50 (MDA-MB-231): 25.5 µM (inactive)
- GI50 (MDA-MB-435): 28.1 µM (inactive)
- GI50 (MDA-N): 33.2 µM (inactive)
- GI50 (MOLT-4): 17.5 µM (inactive)
- GI50 (Malme-3M): 25 µM (inactive)
- GI50 (NCI-H226): 43 µM (inactive)
- GI50 (NCI-H23): 28 µM (inactive)
- GI50 (NCI-H522): 26.9 µM (inactive)
- GI50 (NCI/ADR-RES): 24.2 µM (inactive)
- GI50 (OVCAR-3): 15.3 µM (inactive)
- GI50 (OVCAR-4): 22.8 µM (inactive)
- GI50 (OVCAR-5): 32.1 µM (inactive)
- GI50 (OVCAR-8): 44.5 µM (inactive)
- GI50 (PC-3): 31 µM (inactive)
- GI50 (RPMI-8226): 24.6 µM (inactive)
- GI50 (RXF 393): 18.6 µM (inactive)
- GI50 (SF-268): 45.5 µM (inactive)
- GI50 (SF-539): 45.7 µM (inactive)
- GI50 (SK-MEL-28): 32.4 µM (inactive)
- GI50 (SK-MEL-2): 21.7 µM (inactive)
- GI50 (SK-MEL-5): 19.2 µM (inactive)
- GI50 (SN12C): 20 µM (inactive)
- GI50 (SNB-19): 30.3 µM (inactive)
- GI50 (SNB-75): 29.8 µM (inactive)
- GI50 (SR): 22.4 µM (inactive)
- GI50 (SW-620): 32.8 µM (inactive)
- GI50 (T47D): 27.9 µM (inactive)
- GI50 (UACC-62): 14 µM (inactive)
- GI50 (UO-31): 27.8 µM (inactive)
